According to US20080269188A1, “Oatp-C Gene C463a Polymorphism Underlies Variable Response to Statin Therapy” (INSERM, priority 2005, published 2008):
Marks after values point to notes of the source that are not given here.

Key:
[1] = FAME study: plasma lipid response to Fluvastatin XL 80 mg in elderly patients with primary hypercholesterolemia, overall and by OATP-C C463A (Pro155Thr) genotype; assay type: in vivo, human
Procedure: The characteristics of the study subjects have been previously reported.^26 Patients were enrolled in a large scale, randomized, double-blind, placebo-controlled multicenter study conducted in France, Italy, Spain, Belgium and Israel. Initially, the aim of this study was to investigate the efficacy and safety of extended-release (XL) Fluvastatin 80 mg once daily for up to one year in elderly patients with primary hypercholesterolemia. The study was approved by the relevant Ethic Committees, and informed consent Was given by all subjects before entering the study. Men or women, aged 70-85 years, with primary hypercholesterolemia (total cholesterol ≧251 mg/dL, triglycerides ≦407 mg/dL and LDL cholesterol ≧159 mg/dL after dietary intervention) were eligible for inclusion. […] OATP-C genotypes were determined in 420 subjects from the Fluvastatin arm of the study.
For each subject, plasma lipid response was calculated based on values obtained at baseline (week—2) and 2 months after treatment. Laboratory methods for lipid and lipoprotein measurements are described elsewhere 26; all parameters were measured at a central laboratory. […] Endpoint fluorescence (FAM™, VIC® or both), corresponding to cleavage of the allele-specific probe (allelic discrimination) was measured using an ABI PRISM 7000 Sequence Detection System (Applied Biosystems, Foster City, Calif.). […]

[2] = ALERT trial (renal transplantation): lipid parameters after 6 weeks of fluvastatin by OATP-C Pro155Thr genotype; assay type: in vivo, human; set-up: TC_Visit 2 / TC_Diff / TG_Visit 2 / TG_Diff / HDL_Visit 2 / HDL_Diff / LDL_Visit 2 / LDL_Diff: unit not given here; settings: LSMEAN; for HDL_% change / LDL_% change / TC_% change / TG_% change: 6 weeks; for HDL_Visit 2 / LDL_Visit 2 / TC_Visit 2 / TG_Visit 2: visit 2 (6 weeks of treatment), 40 mg daily; for HDL_Diff / LDL_Diff / TC_Diff / TG_Diff: week 6 minus visit zero
Procedure: Given the success of statins, and fluvastatin in particular, in lowering lipid levels and reducing cardiovascular disease in the general population, the Assessment of LEscol (Fluvastatin) in Renal Transplantation (ALERT) clinical trial was performed (Holdaas et al., 2003). This multicenter, randomized, double-blind placebo-controlled study followed […] renal transplant patients for 5-6 years. Patients were assigned to a placebo or fluvastatin (40 mg daily for two years, and 80 mg daily for the remainder of the study) group, and monitored in laboratory blood analysis every six months and annual electrocardiography.
The Alert trial was conducted in centres in the Scandinavian countries, UK, Germany, Belgium, Switzerland and Canada, with only minimal number of non-Caucasian patients. The demographic and baseline LDL-C characteristics are similar between the fluvastatin treatment and the placebo groups, as illustrated in Table 5.
Blood samples from each consenting patient were collected at the individual trial sites. The genomic DNA of each patient was extracted from the blood using the […]™ DNA Isolation Kit (D-50K) and then genotyping was performed. Ultimately, 1375 ALERT samples were genotyped: 693 from the Fluvastatin group (of 1050 total patients) and 682 from the placebo group (of 1052 total patients).
The primary efficacy variables tested were: LDL cholesterol at visit 2 (6 weeks of treatment) and Change in LDL cholesterol. The change in LDL cholesterol was calculated as the difference between the week 6 value and the visit zero value, for patients for whom both numbers were available. Additional efficacy variables tested in the full set of genotypes were: • HDL cholesterol at visit 2 (6 Weeks of treatment) • Change in HDL cholesterol • Total cholesterol at visit 2 (6 weeks of treatment) • Change in total cholesterol • Triglycerides at visit 2 (6 weeks of treatment) • Change in triglycerides.
Association tests used categorical genotypes as the independent variable, with no assumption about dominance, and the various efficacy variables as dependent variables. Tests of continuous dependent variables used an ANCOVA analysis. No adjustment was made for multiple testing effect.
The relevant association test for each phenotype was first performed in the Fluvastatin treated patient set. SNP-phenotype associations with a threshold of p<0.05 were then tested separately in the placebo set to determine Fluvastatin-related pharmacogenetic effect.

[3] = taken from Buse J., Clinical Diabetes 2003; cited from earlier work

## CC(C)n1c(/C=C/C(O)CC(O)CC(=O)O)c(-c2ccc(F)cc2)c2ccccc21 (stereo not shown) [Fluvastatin, fluvastatin]
[1]; C463A genotype AA (Thr/Thr), n=15, baseline vs 2 months, mean ± SD
  LDL-C, % Change: −41%
[1]; homozygous Thr/Thr vs homozygous wild-type Pro/Pro
  absolute gain in LDL-C reduction: 10%
[2]; Pro155Thr genotype AA, n=16
  HDL_% change: 18%
  LDL_% change: −34%
  TC_% change: −20%
  TG_% change: 8%
  HDL_Visit 2: 1.58
  LDL_Visit 2: 2.68
  TC_Visit 2: 5.17
  TG_Visit 2: 2.12
  HDL_Diff: 0.23
  LDL_Diff: −1.45
  TC_Diff: −1.27
  TG_Diff: −0.037
[2]; Pro155Thr genotype AC, n=167
  HDL_% change: 8%
  LDL_% change: −23%
  TC_% change: −16%
  TG_% change: −3%
  HDL_Visit 2: 1.4
  LDL_Visit 2: 3.12
  TC_Visit 2: 5.39
  TG_Visit 2: 1.98
  HDL_Diff: 0.05
  LDL_Diff: −1.02
  TC_Diff: −1.05
  TG_Diff: −0.181
[2]; Pro155Thr genotype CC, n=468
  HDL_% change: 9%
  LDL_% change: −28%
  TC_% change: −18%
  TG_% change: −5%
  HDL_Visit 2: 1.43
  LDL_Visit 2: 2.91
  TC_Visit 2: 5.21
  HDL_Diff: 0.08
  LDL_Diff: −1.22
  TC_Diff: −1.23
  TG_Diff: −0.226
[3]
  Equipotent dose: 80* mg

## CC(C)c1c(C(=O)Nc2ccccc2)c(-c2ccccc2)c(-c2ccc(F)cc2)n1CC[C@@H](O)C[C@@H](O)CC(=O)O [Atorvastatin, atorvastatin]
[3]
  Equipotent dose: 10 mg

## CC[C@H](C)C(=O)O[C@H]1C[C@@H](C)C=C2C=C[C@H](C)[C@H](CC[C@@H]3C[C@@H](O)CC(=O)O3)[C@H]21 [Lovastatin, lovastatin]
[3]
  Equipotent dose: 60* mg
